Active and inactive are the calls of the source. No cut-off for these calls is given here. Square brackets hold non-standard residues; d marks the D form. Peptide text beside a SMILES is read from it. * marks the point of attachment. ξ: configuration not given here. ξPhe(3-OMe) = COc1cccc(CC(N)C(=O)O)c1; ξPhe(2-I) = NC(Cc1ccccc1I)C(=O)O; Nphe = O=C(O)CNCc1ccccc1; Boc = CC(C)(C)OC(=O)*
Tests used:
Mu-type opioid receptor = Mu-type opioid receptor (Homo sapiens, UniProt P35372); experiment: Displacement of [3H]DAMGO from human MOR expressed in CHO cell membranes assessed as inhibition constant incubated for 60 mins by microbeta 2 scintillation counting method; set-up: species or system Cell membrane
[1] = molecular target: Kappa-type opioid receptor (Homo sapiens, UniProt P41145); experiment: Displacement of [3H]U69593 from human KOR expressed in HEK cell membranes assessed as inhibition constant incubated for 60 mins by microbeta 2 scintillation counting method; set-up: species or system Cell membrane
[2] = molecular target: Delta-type opioid receptor (Homo sapiens, UniProt P41143); experiment: Displacement of [3H]DADLE from human DOR expressed in CHO cell membranes assessed as inhibition constant incubated for 60 mins by microbeta 2 scintillation counting method; set-up: species or system Cell membrane
[3] = Metabolic stability in Sprague-Dawley rat liver microsomes assessed as intrinsic clearance at 100 uM measured upto 24 hrs in presence of NADPH by LC-MS/MS analysis; format: ADME, Microsome
[4] = Metabolic stability in CD-1 mouse plasma assessed as half life at 100 uM measured upto 24 hrs by LC-MS/MS analysis; format: ADME, cell-free
Homo sapiens [5] = species on record: Homo sapiens; experiment: Selectivity ratio of Ki for displacement of [3H]DAMGO from human MOR expressed in CHO cell membranes to Ki for displacement of [3H]U69593 from human KOR expressed in HEK cell membranes
BEND3 = experiment: Apparent permeability coefficient of the compound across blood brain barrier in mouse BEND3 cells at 10 ug/ml measured upto 120 mins by LC-MS/MS analysis; format: functional, cell-based; conditions: dose 10.0 µg/ml
[6] = Plasma protein binding in dog assessed as bound fraction at 1 uM by LC-MS/MS analysis; format: ADME, cell-free, Canis lupus familiaris
[7] = Plasma protein binding in mouse assessed as bound fraction at 1 uM by LC-MS/MS analysis; format: ADME, cell-free
[8] = Metabolic stability in Sprague-Dawley rat plasma assessed as half life at 100 uM measured upto 24 hrs by LC-MS/MS analysis; format: ADME, cell-free
[9] = Metabolic stability in Beagle dog plasma assessed as half life at 100 uM measured upto 24 hrs by LC-MS/MS analysis; format: ADME, cell-free, Canis lupus familiaris; conditions: for half-life at 100 µM: Beagle; for t1/2: 24 h, 100 µM
[10] = Metabolic stability in human plasma assessed as half life at 100 uM measured upto 24 hrs by LC-MS/MS analysis; format: ADME, cell-free; conditions: for t1/2: 24 h, 100 µM
[11] = Plasma protein binding in human assessed as bound fraction at 1 uM by LC-MS/MS analysis; format: ADME, cell-free
Homo sapiens [12] = species on record: Homo sapiens; experiment: Selectivity ratio of Ki for displacement of [3H]DADLE from human DOR expressed in CHO cell membranes to Ki for displacement of [3H]U69593 from human KOR expressed in HEK cell membranes
[13] = Plasma protein binding in rat assessed as bound fraction at 1 uM by LC-MS/MS analysis; format: ADME, cell-free
[14] = In vivo inhibition of U50488-induced activation of KOR in C57BL/6 mouse assessed as reduction of occupancy on cold plate at 1 mg/kg, ip pre-treated with U50488 followed compound addition measured after 1 hr by TPPT assay (reference value: 67.28 +/- 10.8% ); format: functional
Rattus norvegicus [15] = experiment: Antiallodynic activity against spinal nerve ligation neuropathic pain rat model assessed as reduction in mechanical hypersensitivity at 3 mg/kg, ip measured at 1 hr by von frey test; format: functional, organism-based
Rattus norvegicus [16] = experiment: Effect on emotional-affective response in spinal nerve ligation neuropathic pain rat model assessed as reduction in ultrasonic vocalizations at 3 mg/kg, ip measured at 1 hr by preamplifier based analysis; format: functional, organism-based
Rattus norvegicus [17] = experiment: Effect on emotional-affective response in spinal nerve ligation neuropathic pain rat model assessed as reduction in audible vocalizations at 3 mg/kg, ip measured at 1 hr by preamplifier based analysis; format: functional, organism-based

Sequence of Delta-type opioid receptor (P41143 whole entry): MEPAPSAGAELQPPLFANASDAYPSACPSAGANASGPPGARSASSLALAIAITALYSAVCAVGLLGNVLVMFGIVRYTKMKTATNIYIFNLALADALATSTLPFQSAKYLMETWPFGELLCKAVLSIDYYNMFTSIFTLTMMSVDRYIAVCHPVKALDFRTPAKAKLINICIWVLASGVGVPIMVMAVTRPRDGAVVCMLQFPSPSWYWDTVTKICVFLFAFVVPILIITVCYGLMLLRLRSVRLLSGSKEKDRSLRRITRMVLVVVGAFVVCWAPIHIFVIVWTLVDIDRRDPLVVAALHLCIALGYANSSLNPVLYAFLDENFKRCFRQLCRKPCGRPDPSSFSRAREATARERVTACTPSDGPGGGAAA
Sequence of Mu-type opioid receptor (P35372 whole entry): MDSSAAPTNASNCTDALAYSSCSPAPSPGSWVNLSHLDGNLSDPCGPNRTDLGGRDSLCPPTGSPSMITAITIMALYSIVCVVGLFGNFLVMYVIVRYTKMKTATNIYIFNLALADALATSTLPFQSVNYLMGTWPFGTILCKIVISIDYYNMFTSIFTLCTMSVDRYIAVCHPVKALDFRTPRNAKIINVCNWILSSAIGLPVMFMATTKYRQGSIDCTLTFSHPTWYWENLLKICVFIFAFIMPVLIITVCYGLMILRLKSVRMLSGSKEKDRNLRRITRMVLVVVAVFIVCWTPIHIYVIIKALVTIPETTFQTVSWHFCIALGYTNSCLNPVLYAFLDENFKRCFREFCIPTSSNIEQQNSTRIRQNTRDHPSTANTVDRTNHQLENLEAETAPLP
Sequence of Kappa-type opioid receptor (P41145 whole entry): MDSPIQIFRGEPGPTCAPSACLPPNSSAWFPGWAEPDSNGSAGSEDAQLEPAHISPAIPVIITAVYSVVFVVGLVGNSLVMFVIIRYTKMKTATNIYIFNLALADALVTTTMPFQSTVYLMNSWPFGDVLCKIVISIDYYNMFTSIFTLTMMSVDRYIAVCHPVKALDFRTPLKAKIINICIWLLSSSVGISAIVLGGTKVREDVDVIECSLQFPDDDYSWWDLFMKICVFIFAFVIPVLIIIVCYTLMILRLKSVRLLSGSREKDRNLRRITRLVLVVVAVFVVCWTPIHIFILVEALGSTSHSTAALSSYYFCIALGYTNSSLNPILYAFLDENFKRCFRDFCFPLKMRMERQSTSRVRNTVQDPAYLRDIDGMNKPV

Ki (Mu-type opioid receptor) [µM] | Ki [1] [µM] | Ki [2] [µM] | Compound | Ratio Ki (Homo sapiens [5]) | Ratio Ki (Homo sapiens [12]) | also measured
> 10 | > 10 | > 10 | COC(=O)C(Cc1cccc(OC)c1)NC(=O)CNCc1ccccc1 (stereo not drawn) (H-[Nphe]-[ξPhe(3-OMe)]-OMe) | – | – | –
> 10 | 0.51 | > 10 | COc1cc(CC2NC(=O)CN(Cc3ccccc3)C2=O)c(I)c(OC)c1 (stereo not drawn) | > 20 | > 20 | Intrinsic clearance [3]: 390.5 µL/min/mg; half-life at 100 µM [4]: > 24 h; Pe (BEND3): 9.68 10^-3cm/min; PPB [6]: 89.68%; PPB [7]: 91.69%; half-life at 100 µM [8]: > 24 h; half-life at 100 µM [9]: > 24 h; half-life at 100 µM [10]: > 24 h; PPB [11]: 95.95%; PPB [13]: 93.99%
> 10 | 0.765 | > 10 | COC(=O)C(Cc1cccc(OC)c1I)NC(=O)CNC(C)c1ccccc1 (stereo not drawn) | > 13 | > 13 | –
> 10 | > 10 | > 10 | COc1cccc(CC2NC(=O)[C@@H]3CCCN3C2=O)c1I (stereo partly drawn) | – | – | –
> 10 | > 10 | > 10 | COC(=O)C(Cc1cc(OC)cc(OC)c1I)NC(=O)CNCc1ccccc1 (stereo not drawn) | – | – | –
> 10 | > 10 | > 10 | COc1cccc(CC2NC(=O)CCN(Cc3ccccc3)C2=O)c1I (stereo not drawn) | – | – | –
> 10 | 0.123 | > 10 | COC(=O)C(Cc1cccc(C)c1I)NC(=O)CNCc1ccccc1 (stereo not drawn) | > 81 | > 81 | Intrinsic clearance [3]: 1889 µL/min/mg; half-life at 100 µM [4]: < 0.0167 h; Pe (BEND3): 21.5 10^-3cm/min; half-life at 100 µM [8]: < 0.0167 h; t1/2 [9]: 3.8202 h; t1/2 [10]: 2.4577 h; PPB [11]: 97.86%
> 10 | 0.6 | > 10 | COc1cccc(CC2NC(=O)CN(Cc3ccccc3)C2=O)c1C (stereo not drawn) | > 17 | > 17 | Intrinsic clearance [3]: 337.2 µL/min/mg; half-life at 100 µM [4]: > 24 h; Pe (BEND3): 5.99 10^-3cm/min; PPB [6]: 86.67%; PPB [7]: 86.29%; half-life at 100 µM [8]: > 24 h; half-life at 100 µM [9]: > 24 h; half-life at 100 µM [10]: > 24 h; PPB [11]: 80.46%; PPB [13]: 76.34%
> 10 | > 10 | > 10 | COc1cccc(CC2NC(=O)[C@H](CC(C)C)NC2=O)c1I (stereo partly drawn) | – | – | –
> 10 | > 10 | > 10 | COc1cccc(CC2NC(=O)[C@H](Cc3ccccc3)NC2=O)c1I (stereo partly drawn) | – | – | –
> 10 | > 10 | > 10 | COC(=O)C(Cc1cccc(OC)c1)NC(=O)CN(Cc1ccccc1)C(=O)OC(C)(C)C (stereo not drawn) (Boc-[Nphe]-[ξPhe(3-OMe)]-OMe) | – | – | –
> 10 | 5.11 | > 10 | COc1cccc(CC2NC(=O)CN(CCc3ccccc3)C2=O)c1I (stereo not drawn) | > 1.9 | > 1.9 | –
> 10 | 2.17 | > 10 | COC(=O)C(Cc1cccc(OC)c1I)NC(=O)[C@@H](N)Cc1ccccc1 (mixture of isomers) | > 5 | > 5 | –
– | – | – | O=C1OC2(c3ccc(O)cc3Oc3cc(O)ccc32)c2ccccc21 | – | – | Pe (BEND3): 0.95 10^-3cm/min
> 10 | 0.802 | > 10 | COC(=O)C(Cc1cccc(OC)c1I)NC(=O)CNCCc1ccccc1 (stereo not drawn) | > 12 | > 12 | –
> 10 | 0.277 | > 10 | COC(=O)C(Cc1cccc(OC)c1I)NC(=O)CNCc1ccccc1 (stereo not drawn) | > 36 | > 36 | Intrinsic clearance [3]: 1928 µL/min/mg; half-life at 100 µM [4]: < 0.0167 h; Pe (BEND3): 8.75 10^-3cm/min; PPB [6]: 97.09%; half-life at 100 µM [8]: < 0.0167 h; t1/2 [9]: 3.6808 h; t1/2 [10]: 2.1762 h; PPB [11]: 90.8%
> 10 | > 10 | > 10 | COc1cccc(CC2NC(=O)CN(CC=C(C)C)C2=O)c1I (stereo not drawn) | – | – | –
> 10 | > 10 | > 10 | COC(=O)C(Cc1cccc(OC)c1I)NC(=O)CN(C)C(=O)OC(C)(C)C (stereo not drawn) | – | – | –
> 10 | > 10 | > 10 | COC(=O)C(Cc1cccc(OC)c1I)NC(=O)CCCc1ccccc1 (stereo not drawn) | – | – | –
> 10 | > 10 | > 10 | COC(=O)C(Cc1ccccc1I)NC(=O)CNCc1ccccc1 (stereo not drawn) (H-[Nphe]-[ξPhe(2-I)]-OMe) | – | – | –

Compound | Ki (Mu-type opioid receptor) [µM] | Ki [1] [µM] | Ki [2] [µM] | Ratio Ki (Homo sapiens [5]) | Ratio Ki (Homo sapiens [12]) | also measured
COc1cccc(CC2NC(=O)CN(Cc3ccccc3)C2=O)c1I (stereo not drawn) | > 10 | 0.924 | > 10 | > 11 | > 11 | inhibition in vivo at 1 mg/kg [14]: 10.3%; Activity (Rattus norvegicus [15]): Active; Intrinsic clearance [3]: 381.8 µL/min/mg; half-life at 100 µM [4]: > 24 h; Pe (BEND3): 5.07 10^-3cm/min; Activity (Rattus norvegicus [16]): Active; PPB [6]: 86.15%; PPB [7]: 85.15%; half-life at 100 µM [8]: > 24 h; half-life at 100 µM [9]: > 24 h; half-life at 100 µM [10]: > 24 h; PPB [11]: 91.42%; PPB [13]: 91.24%; Activity (Rattus norvegicus [17]): Active

From ChEMBL document CHEMBL5325418, “Studies on diketopiperazine and dipeptide analogs as opioid receptor ligands” (Eur J Med Chem, 2023)
